For experiment [1], the target named is Human recombinant Acetyl-CoA Carboxylase 2 (ACC2) (Homo sapiens, UniProt O00763). The experiment is described as follows: Assay X: ACC2 inhibition, inorganic phosphate (malachite green). The class given is biochemical. The note with it: Assay X: 37° C., 1.5 h, 5 min pre-incubation. The protocol:
(§1) Human recombinant Acetyl-CoA Carboxylase 1 and Acetyl-CoA Carboxylase 2 (ACC1 and ACC2) were assayed by determining the amount of inorganic phosphate (Pi) generated. Pre-incubation of 15 μL enzyme together with 0.75 μL DMSO+/−compound for 5 min was done before the reaction was initiated by the addition of 10 μL substrate. […] After 1.5 h the reaction was stopped by addition of 74 μL of water followed by extensive mixing, split and transfer of 2×40 μL to a read-plate encompassing 30 μL distilled H2O per well (n=2→n=4). Colour reaction was initiated by addition of 30 μL malachite green reagent per well and allowed 15 min before absorbance reading of the plates at 660 nm. The malachite green reagent was prepared by mixing 16.4 mL ammonium molybdate solution (7.5%), 1.64 mL Tween (11%) with 82 mL Malachite Green/H2SO4-solution (0.7 g Malachite Green to 1000 mL of 10% (v/v) H2SO4).
(§2) All compounds were tested in triplicate at 10 different concentrations. Control compound (0, 50 and 100% effect) was included on each plate. […] Curve fitting was done using the following equation: y=(A+((B−A)/(1+((x/C)̂D)))) where A and B represents the curve bottom (% inhibition) and the total amplitude (% inhibition), respectively, whereas C and D are the apparent IC50 and curve slope, respectively.

Experiment [2] concerns the target Human recombinant Acetyl-CoA Carboxylase 1 (ACC1) (Homo sapiens, UniProt Q13085). The experiment is described as follows: Assay X: ACC1 inhibition, inorganic phosphate (malachite green). The note with it: Assay X: 37° C., 1.5 h, 5 min pre-incubation. Format: biochemical. The protocol:
as §1, §2

SMILES strings stand for the structures. Some results are limits rather than exact numbers.

21 compounds from patent US20090306133A1, “New Acetyl Coenzyme A Carboxylase (ACC) Inhibitors And Uses In Treatments Of Obesity And Diabetes Mellitus - 087” (ASTRAZENECA AB, priority 2007, published 2009) can be followed below.

In general, IC50 refers to the point on the concentration scale where inhibition reaches its midpoint.

Sequence of Human recombinant Acetyl-CoA Carboxylase 2 (ACC2) (O00763 whole entry): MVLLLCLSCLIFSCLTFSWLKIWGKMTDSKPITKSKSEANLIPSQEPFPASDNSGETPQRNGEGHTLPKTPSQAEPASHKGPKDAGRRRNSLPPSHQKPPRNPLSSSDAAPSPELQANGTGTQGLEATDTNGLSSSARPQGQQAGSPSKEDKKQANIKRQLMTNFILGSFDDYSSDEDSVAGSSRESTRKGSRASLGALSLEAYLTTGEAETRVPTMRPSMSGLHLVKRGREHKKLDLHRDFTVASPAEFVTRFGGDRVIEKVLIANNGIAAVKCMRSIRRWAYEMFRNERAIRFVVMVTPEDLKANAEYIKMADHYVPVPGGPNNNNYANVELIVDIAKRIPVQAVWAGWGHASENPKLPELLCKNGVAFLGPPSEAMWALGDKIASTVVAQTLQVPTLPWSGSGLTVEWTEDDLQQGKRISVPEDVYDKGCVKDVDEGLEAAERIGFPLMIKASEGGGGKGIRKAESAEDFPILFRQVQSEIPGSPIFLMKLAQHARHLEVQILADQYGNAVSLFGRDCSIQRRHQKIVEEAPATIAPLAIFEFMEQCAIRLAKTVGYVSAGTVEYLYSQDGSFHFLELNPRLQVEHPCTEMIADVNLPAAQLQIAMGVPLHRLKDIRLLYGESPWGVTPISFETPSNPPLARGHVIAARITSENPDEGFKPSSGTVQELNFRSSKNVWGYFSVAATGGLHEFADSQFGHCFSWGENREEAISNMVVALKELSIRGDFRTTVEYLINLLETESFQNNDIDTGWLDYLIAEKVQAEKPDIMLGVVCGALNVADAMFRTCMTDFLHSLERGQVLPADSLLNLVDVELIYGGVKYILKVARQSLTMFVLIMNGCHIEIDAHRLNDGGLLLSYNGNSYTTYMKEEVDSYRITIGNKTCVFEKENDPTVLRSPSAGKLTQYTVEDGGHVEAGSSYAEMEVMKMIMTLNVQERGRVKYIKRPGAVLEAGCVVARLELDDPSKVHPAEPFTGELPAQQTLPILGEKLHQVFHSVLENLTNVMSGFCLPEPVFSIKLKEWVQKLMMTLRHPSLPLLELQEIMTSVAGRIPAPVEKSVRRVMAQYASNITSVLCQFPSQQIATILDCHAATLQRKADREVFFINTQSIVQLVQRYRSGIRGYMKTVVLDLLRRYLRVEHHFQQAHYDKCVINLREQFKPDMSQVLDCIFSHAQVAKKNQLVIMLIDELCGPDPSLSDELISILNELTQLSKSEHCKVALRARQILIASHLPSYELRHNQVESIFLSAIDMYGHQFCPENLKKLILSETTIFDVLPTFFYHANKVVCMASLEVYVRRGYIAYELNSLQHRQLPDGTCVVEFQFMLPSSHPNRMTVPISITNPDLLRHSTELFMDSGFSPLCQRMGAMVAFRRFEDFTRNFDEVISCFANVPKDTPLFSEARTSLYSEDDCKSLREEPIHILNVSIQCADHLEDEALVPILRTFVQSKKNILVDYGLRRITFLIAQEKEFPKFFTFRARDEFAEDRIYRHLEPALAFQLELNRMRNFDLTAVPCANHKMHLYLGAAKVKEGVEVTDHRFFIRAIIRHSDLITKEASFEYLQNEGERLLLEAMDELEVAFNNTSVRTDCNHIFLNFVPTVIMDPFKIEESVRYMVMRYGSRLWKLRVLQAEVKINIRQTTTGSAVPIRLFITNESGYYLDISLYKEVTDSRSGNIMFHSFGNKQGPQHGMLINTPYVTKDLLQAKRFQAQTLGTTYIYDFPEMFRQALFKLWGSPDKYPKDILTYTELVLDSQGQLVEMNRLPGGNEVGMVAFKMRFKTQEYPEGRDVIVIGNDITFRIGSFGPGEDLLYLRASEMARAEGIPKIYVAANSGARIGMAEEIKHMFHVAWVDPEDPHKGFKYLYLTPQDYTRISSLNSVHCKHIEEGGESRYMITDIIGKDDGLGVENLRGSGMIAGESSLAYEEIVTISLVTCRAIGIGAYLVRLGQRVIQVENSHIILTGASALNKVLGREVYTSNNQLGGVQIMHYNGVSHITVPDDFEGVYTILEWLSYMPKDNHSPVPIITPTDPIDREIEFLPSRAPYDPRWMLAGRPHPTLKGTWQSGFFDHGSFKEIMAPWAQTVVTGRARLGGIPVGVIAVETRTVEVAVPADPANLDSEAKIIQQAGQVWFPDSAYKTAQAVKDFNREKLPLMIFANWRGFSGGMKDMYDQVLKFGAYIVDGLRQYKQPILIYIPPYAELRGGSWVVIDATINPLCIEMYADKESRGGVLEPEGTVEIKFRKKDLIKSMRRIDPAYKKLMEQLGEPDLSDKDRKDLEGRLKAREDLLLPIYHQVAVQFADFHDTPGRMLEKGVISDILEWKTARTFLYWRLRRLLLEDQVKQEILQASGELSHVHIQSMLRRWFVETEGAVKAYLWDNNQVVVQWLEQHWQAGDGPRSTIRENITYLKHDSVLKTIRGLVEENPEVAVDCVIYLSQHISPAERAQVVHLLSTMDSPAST

On to `CC(C)(C)OC(=O)NC[C@H]1CC[C@H](CNC(=O)c2cc(-c3ccc(NCC(O)CO)nc3)nc3ccccc23)CC1` (relative stereo) [Example 162, tert-Butyl{[trans-4-({[(2-{6-[(2,3-dihydroxypropyl)amino]pyridin-3-yl}quinolin-4-yl)carbonyl]amino}-methyl)cyclohexyl]-methyl}carbamate], for which the figures for the IC50 in experiment [1] and in experiment [2] were 0.37 µM and 0.88 µM, respectively.

For the compound `CN(C)CCN1CCN(c2cc(C(=O)NC[C@H]3CC[C@H](CNC(=O)OC(C)(C)C)CC3)c3ccccc3n2)CC1=O` [Example 219, tert-Butyl {[trans-4-({[(2-{4-[2-(dimethylamino)ethyl]-3-oxopiperazin-1-yl}quinolin-4-yl)carbonyl]amino}methyl)cyclohexyl]methyl}carbamate], the concentration for half-maximal inhibition (IC50) in experiment [1] was found to be 0.9 µM; in experiment [2], 4.58 µM.

`CC(C)(C)OC(=O)NC[C@H]1CC[C@H](CNC(=O)c2cc(N3CCC(CN4CCOCC4)CC3)nc3ccccc23)CC1` [Example 213, tert-Butyl[(trans-4-{[({2-[4-(morpholin-4-ylmethyl)piperidin-1-yl]quinolin-4-yl}carbonyl)amino]methyl}cyclohexyl)methyl]-carbamate]: the IC50 in experiment [1] worked out at 0.62 µM; in experiment [2], 3.28 µM.

On to `CC(C)(C)OC(=O)NC[C@H]1CC[C@H](CNC(=O)c2cc(N3CCC(OCc4ccc(F)cc4)CC3)nc3ccccc23)CC1` [Example 221, tert-Butyl {[trans-4-({[(2-{4-[(4-fluorobenzyl)oxy]piperidin-1-yl}quinolin-4-yl)carbonyl]amino}methyl)cyclohexyl]methyl}carbamate], for which the results for the IC50 in experiment [1] and in experiment [2] were 1.61 µM and over 20 µM, respectively.

Regarding `CC(CNc1ccc(-c2cc(C(=O)NC[C@H]3CC[C@H](CNC(=O)OC(C)(C)C)CC3)c3ccccc3n2)cn1)C(=O)O` (relative stereo) [Example 158, 3-{[5-(4-{[(trans-4-{[(tert-Butoxycarbonyl)amino]methyl}cyclohexyl)methyl]-carbamoyl}quinolin-2-yl)pyridin-2-yl]amino}-2-methyl-propanoic acid], the IC50 worked out at 1.24 µM in experiment [1] and 3.87 µM in experiment [2].

Take `CC(C)(C)OC(=O)NC[C@H]1CC[C@H](CNC(=O)c2cc(N3CCC(CC(O)CN4CCOCC4)CC3)nc3ccccc23)CC1` (relative stereo) [Example 207, tert-Butyl[(trans-4-{[({2-[4-(2-hydroxy-3-morpholin-4-ylpropyl)piperidin-1-yl]quinolin-4-yl}-carbonyl)amino]methyl}cyclohexyl)methyl]-carbamate]: the IC50 was determined as 0.13 µM in experiment [1] and 1.04 µM in experiment [2].

`CN(C)CCn1cc(-c2cc(C(=O)NC[C@H]3CC[C@H](CNC(=O)OC(C)(C)C)CC3)c3ccccc3n2)cn1` [Example 242, tert-Butyl {[trans-4-({[(2-{1-[2-(dimethylamino)ethyl]-1H-pyrazol-4-yl}quinolin-4-yl)carbonyl]amino}methyl)cyclohexyl]methyl}carbamate]: the half-maximal inhibitory concentration (IC50) in experiment [1] came out at 0.24 µM; in experiment [2] it was 1.33 µM.

Consider `CC(C)(C)OC(=O)NC[C@H]1CC[C@H](CNC(=O)c2cc(-c3ccc(N4CC(O)C4)nc3)nc3ccccc23)CC1` [Example 168, tert-Butyl[(trans-4-{[({2-[6-(3-hydroxyazetidin-1-yl)-pyridin-3-yl]quinolin-4-yl}carbonyl)amino]-methyl}cyclohexyl)methyl]carbamate], for which the concentration for half-maximal inhibition (IC50) in experiment [1] came to 0.23 µM; in experiment [2], 0.68 µM.

`CN(C)CCOc1ccc(-c2cc(C(=O)NC[C@H]3CC[C@H](CNC(=O)OC(C)(C)C)CC3)c3ccccc3n2)cc1` [Example 203, tert-Butyl {[trans-4-({[(2-{4-[2-(dimethylamino)ethoxy]phenyl}quinolin-4-yl)carbonyl]amino}methyl)cyclohexyl]methyl}carbamate]: the concentration for half-maximal inhibition (IC50) was determined as 0.15 µM in experiment [1] and 0.63 µM in experiment [2].

With `CC(C)(C)OC(=O)NC[C@H]1CC[C@H](CNC(=O)c2cc(-c3ccc(N4CCC[C@H]4C(N)=O)nc3)nc3ccccc23)CC1` [Example 163, tert-Butyl{[trans-4-({[(2-{6-[(2S)-2-carbamoylpyrrolidin-1-yl]pyridin-3-yl}-quinolin-4-yl)-carbonyl]amino}methyl)cyclohexyl]methyl}-carbamate], the values for the IC50 in experiment [1] and in experiment [2] were 0.37 µM and 1.1 µM, respectively.

Consider `CC(C)(C)OC(=O)NC[C@H]1CC[C@H](CNC(=O)c2cc(-c3ccc(NCCCO)nc3)nc3ccccc23)CC1` [Example 150, tert-Butyl{[trans-4-({[(2-{6-[(3-hydroxypropyl)amino]pyridin-3-yl}quinolin-4-yl)carbonyl]amino}-methyl)cyclohexyl]methyl}carbamate], for which the results for the IC50 in experiment [1] and in experiment [2] were 0.13 µM and 0.35 µM, respectively.

With `CC(C)(C)OC(=O)NC[C@H]1CC[C@H](CNC(=O)c2cc(N3CCC(CCN4CCC(O)C4)CC3)nc3ccccc23)CC1` (relative stereo) [Example 230, tert-Butyl{[trans-4-({[(2-{4-[2-(3-hydroxypyrrolidin-1-yl)ethyl]piperidin-1-yl}quinolin-4-yl)carbonyl]amino}-methyl)cyclohexyl]-methyl}carbamate], the figures for the IC50 in experiment [1] and in experiment [2] were 0.16 µM and 1.33 µM, respectively.

With `CC(C)(C)OC(=O)NC[C@H]1CC[C@H](CNC(=O)c2cc(-c3ccc(N4CCC(O)CC4)nc3)nc3ccccc23)CC1` [Example 151, tert-Butyl[(trans-4-{[({2-[6-(4-hydroxypiperidin-1-yl)pyridin-3-yl]-quinolin-4-yl}-carbonyl)amino]methyl}cyclohexyl)methyl]carbamate], the IC50 in experiment [1] worked out at 0.16 µM; in experiment [2], 0.61 µM.

On to `CC(=O)NCC1CCN(c2cc(C(=O)NC[C@H]3CC[C@H](CNC(=O)OC(C)(C)C)CC3)c3ccccc3n2)CC1` [Example 191, tert-Butyl [(trans-4-{[({2-[4-(acetamidomethyl)piperidin-1-yl]quinolin-4-yl}carbonyl)amino]methyl}cyclohexyl)methyl]carbamate], for which the IC50 in experiment [1] came to 0.97 µM; in experiment [2] it was 2.96 µM.

As for `CN(C)C(=O)COC1CCN(c2cc(C(=O)NC[C@H]3CC[C@H](CNC(=O)OC(C)(C)C)CC3)c3ccccc3n2)CC1` [Example 210, tert-Butyl {[trans-4-({[(2-{4-[2-(dimethylamino)-2-oxoethoxy]piperidin-1-yl}quinolin-4-yl)carbonyl]amino}methyl)cyclohexyl]methyl}carbamate], the figures for the IC50 in experiment [1] and in experiment [2] were 2.04 µM and 13.1 µM, respectively.

Turning to `Cc1cnc(CNc2ccc(-c3cc(C(=O)NC[C@H]4CC[C@H](CNC(=O)OC(C)(C)C)CC4)c4ccccc4n3)cn2)cn1` [Example 159, tert-Butyl({trans-4-[({[2-(6-{[(5-methylpyrazin-2-yl)methyl]amino}pyridin-3-yl)quinolin-4-yl]carbonyl}amino)methyl]cyclohexyl}methyl)carbamate], the IC50 was 0.28 µM in experiment [1] and 0.5 µM in experiment [2].

Take `CC(C)(C)OC(=O)NC[C@H]1CC[C@H](CNC(=O)c2cc(-c3cccnc3)nc(-c3cccc(CN)c3)c2)CC1` [Example 240, tert-Butyl [(trans-4-{[({6-[3-(aminomethyl)phenyl]-2,3′-bipyridin-4-yl}carbonyl)amino]methyl}cyclohexyl)methyl]carbamate]: the IC50 was 0.36 µM in experiment [1] and 1.08 µM in experiment [2].

Regarding `COCCNCCC1CCN(c2cc(C(=O)NC[C@H]3CC[C@H](CNC(=O)OC(C)(C)C)CC3)c3ccccc3n2)CC1` [Example 226, tert-Butyl ({trans-4-[({[2-(4-{2-[(2-methoxyethyl)amino]ethyl}piperidin-1-yl)quinolin-4-yl]carbonyl}amino)methyl]cyclohexyl}methyl)carbamate], the results for the IC50 in experiment [1] and in experiment [2] were 0.2 µM and 1.63 µM, respectively.

Consider `CN(C)CCOC1CCN(c2cc(C(=O)NC[C@H]3CC[C@H](CNC(=O)OC(C)(C)C)CC3)c3ccccc3n2)CC1` [Example 211, tert-Butyl {[trans-4-({[(2-{4-[2-(dimethylamino)ethoxy]piperidin-1-yl}quinolin-4-yl)carbonyl]amino}methyl)cyclohexyl]methyl}carbamate], for which the IC50 in experiment [1] amounted to 0.27 µM; in experiment [2] it was 2.22 µM.

In the case of `CC(C)(C)OC(=O)NC[C@H]1CC[C@H](CNC(=O)c2cc(-c3ccc(N4CCC(CO)CC4)nc3)nc3ccccc23)CC1` [Example 161, tert-Butyl{[trans-4-({[(2-{6-[4-(hydroxymethyl)piperidin-1-yl]pyridin-3-yl}-quinolin-4-yl)-carbonyl]amino}methyl)cyclohexyl]methyl}carbamate], the IC50 came to 0.16 µM in experiment [1] and 0.3 µM in experiment [2].

As to `CC(C)(C)OC(=O)NC[C@H]1CC[C@H](CNC(=O)c2cc(-c3ccc(N(CCO)CCO)nc3)nc3ccccc23)CC1` [Example 152, tert-Butyl{[trans-4-({[(2-{6-[bis(2-hydroxyethyl)amino]pyridin-3-yl}quinolin-4-yl)carbonyl]amino}-methyl)cyclohexyl]methyl}carbamate], the results for the IC50 in experiment [1] and in experiment [2] were 0.17 µM and 0.48 µM, respectively.
